Laboratory results: US20220095618A1, “HERBICIDAL COMPOSITIONS” (SYNGENTA CROP PROTECTION AG, priority 2019, published 2022)

Tests used:
Experiment in all cases: Post-emergence efficacy of compounds of Formula (I) (B1), glasshouse
Format in all cases: in vivo
[1] = tested on: Chenopodium album (CHEAL); settings: Application Rate 500 g/Ha, evaluated after 13 days; for pest or weed control at 500 g/ha: Chenopodium album, post-emergence, 312 h, read-out: Control of CHEAL after post-emergence application (100=total damage to plant; 0=no damage to plant)
Method: (§1) Seeds of a variety of test species were sown in standard Iaom-based soil in pots:— Ipomoea hederacea (IPOHE), Euphorbia heterophylla (EPHHL), Chenopodium album (CHEAL), Amaranthus palmeri (AMAPA), Lolium perenne (LOLPE), Digitaria sanguinalis (DIGSA), Eleusine indica (ELEIN), Echinochloa crus-galli (ECHCG), Setaria faberi (SETFA). After cultivation for 14 days (post-emergence) under controlled conditions in a glasshouse (at 24/16° C., day/night; 14 hours light; 65% humidity), the plants were sprayed with an aqueous spray solution derived from the dissolution of the technical active ingredient Formula (I) in a small amount of acetone and a special solvent and emulsifier mixture referred to as IF50 (11.12% Emulsogen EL360 TM+44.44% N-methylpyrrolidone+44.44% Dowanol DPM glycol ether), to create a 50 g/I solution which was then diluted to required concentration using 0.25% or 1% Empicol ESC70 (Sodium lauryl ether sulphate)+1% ammonium sulphate as diluent. The delivery of the aqueous spray solution was via a laboratory track sprayer which delivered the aqueous spray composition at a rate of 200 litres per hectare, using a flat fan nozzle (Teejet 11002VS) and an application volume of 200 litre/ha (at 2 bar).
(§2) The test plants were then grown in a glasshouse under controlled conditions (at 24/16° C., day/night; 14 hours light; 65% humidity) and watered twice daily. After 13 days the test was evaluated (100=total damage to plant; 0=no damage to plant).

Setaria faberi (SETFA) = settings: Application Rate 500 g/Ha, evaluated after 13 days; for pest or weed control at 500 g/ha: Setaria faberi, post-emergence, 312 h, read-out: Control of SETFA after post-emergence application (100=total damage to plant; 0=no damage to plant)
Method: as §1, §2

[2] = tested on: Ipomoea hederacea (IPOHE); settings: Application Rate 500 g/Ha, evaluated after 13 days; for pest or weed control at 500 g/ha: Ipomoea hederacea, post-emergence, 312 h, read-out: Control of IPOHE after post-emergence application (100=total damage to plant; 0=no damage to plant)
Method: as §1, §2

[3] = tested on: Echinochloa crus-galli (ECHCG); settings: Application Rate 500 g/Ha, evaluated after 13 days; for pest or weed control at 500 g/ha: Echinochloa crus-galli, post-emergence, 312 h, read-out: Control of ECHCG after post-emergence application (100=total damage to plant; 0=no damage to plant)
Method: as §1, §2

Lolium perenne (LOLPE) = settings: Application Rate 500 g/Ha, evaluated after 13 days; for pest or weed control at 500 g/ha: Lolium perenne, post-emergence, 312 h, read-out: Control of LOLPE after post-emergence application (100=total damage to plant; 0=no damage to plant)
Method: as §1, §2

Eleusine indica (ELEIN) = settings: Application Rate 500 g/Ha, evaluated after 13 days; for pest or weed control at 500 g/ha: Eleusine indica, post-emergence, 312 h, read-out: Control of ELEIN after post-emergence application (100=total damage to plant; 0=no damage to plant)
Method: as §1, §2

[4] = tested on: Euphorbia heterophylla (EPHHL); settings: Application Rate 500 g/Ha, evaluated after 13 days; for pest or weed control at 500 g/ha: Euphorbia heterophylla, post-emergence, 312 h, read-out: Control of EPHHL after post-emergence application (100=total damage to plant; 0=no damage to plant)
Method: as §1, §2

[5] = tested on: Digitaria sanguinalis (DIGSA); settings: Application Rate 500 g/Ha, evaluated after 13 days; for pest or weed control at 500 g/ha: Digitaria sanguinalis, post-emergence, 312 h, read-out: Control of DIGSA after post-emergence application (100=total damage to plant; 0=no damage to plant)
Method: as §1, §2

[6] = tested on: Amaranthus palmeri (AMAPA); settings: Application Rate 500 g/Ha, evaluated after 13 days
Method: as §1, §2

Compound: Cc1cnc(-c2cc[n+](CCS(=O)(=O)[O-])nc2)nc1 [Compound 1.009]
- pest or weed control at 500 g/ha [1]: 100%
- pest or weed control at 500 g/ha (Setaria faberi (SETFA)): 100%
- pest or weed control at 500 g/ha [2]: 30%
- pest or weed control at 500 g/ha [3]: 100%
- pest or weed control at 500 g/ha (Lolium perenne (LOLPE)): 80%
- pest or weed control at 500 g/ha (Eleusine indica (ELEIN)): 100%
- pest or weed control at 500 g/ha [4]: 70%
- pest or weed control at 500 g/ha [5]: 100%

Compound: O=C(O)CC[n+]1ccc(-c2ncccn2)cn1.[Cl-] [Compound 1.010, 3-(4-pyrimidin-2-ylpyridazin-1-ium-1-yl)propanoic acid chloride]
- pest or weed control at 500 g/ha [1]: 100%
- pest or weed control at 500 g/ha (Setaria faberi (SETFA)): 100%
- Control of IPOHE after post-emergence application (100=total damage to plant; 0=no damage to plant) [2]: 40
- pest or weed control at 500 g/ha [3]: 100%
- Control of LOLPE after post-emergence application (100=total damage to plant; 0=no damage to plant) (Lolium perenne (LOLPE)): 90
- pest or weed control at 500 g/ha (Eleusine indica (ELEIN)): 100%
- pest or weed control at 500 g/ha [4]: 100%
- pest or weed control at 500 g/ha [5]: 100%

Compound: Cc1ccc(-c2cc[n+](CCS(=O)(=O)[O-])nc2)nn1 [Compound 1.014]
- pest or weed control at 500 g/ha [1]: 100%
- pest or weed control at 500 g/ha (Setaria faberi (SETFA)): 100%
- pest or weed control at 500 g/ha [3]: 80%
- pest or weed control at 500 g/ha ([6]; Amaranthus palmeri, post-emergence, 312 h, read-out: Control of AMAPA after post-emergence application (100=total damage to plant; 0=no damage to plant)): 100%
- pest or weed control at 500 g/ha (Lolium perenne (LOLPE)): 90%
- pest or weed control at 500 g/ha (Eleusine indica (ELEIN)): 90%
- pest or weed control at 500 g/ha [4]: 100%
- pest or weed control at 500 g/ha [5]: 100%

Compound: Cc1ccnc(-c2cc[n+](CCC(=O)[O-])nc2)n1 [Compound 1.015]
- pest or weed control at 500 g/ha [1]: 100%
- pest or weed control at 500 g/ha (Setaria faberi (SETFA)): 100%
- pest or weed control at 500 g/ha [2]: 30%
- pest or weed control at 500 g/ha [3]: 100%
- pest or weed control at 500 g/ha (Lolium perenne (LOLPE)): 80%
- pest or weed control at 500 g/ha (Eleusine indica (ELEIN)): 100%
- pest or weed control at 500 g/ha [4]: 80%
- pest or weed control at 500 g/ha [5]: 100%

Compound: Nc1ccnc(-c2cc[n+](CCC(=O)O)nc2)n1 [Compound 1.016]
- pest or weed control at 500 g/ha [1]: 90%
- pest or weed control at 500 g/ha (Setaria faberi (SETFA)): 100%
- pest or weed control at 500 g/ha [2]: 30%
- pest or weed control at 500 g/ha [3]: 100%
- pest or weed control at 500 g/ha (Lolium perenne (LOLPE)): 70%
- pest or weed control at 500 g/ha (Eleusine indica (ELEIN)): 100%
- pest or weed control at 500 g/ha [4]: 90%
- pest or weed control at 500 g/ha [5]: 100%

Compound: Cc1cc(C)nc(-c2cc[n+](CCC(=O)[O-])nc2)n1 [Compound 1.017]
- pest or weed control at 500 g/ha [1]: 100%
- pest or weed control at 500 g/ha (Setaria faberi (SETFA)): 100%
- pest or weed control at 500 g/ha [2]: 50%
- pest or weed control at 500 g/ha [3]: 70%
- pest or weed control at 500 g/ha (Lolium perenne (LOLPE)): 60%
- pest or weed control at 500 g/ha (Eleusine indica (ELEIN)): 100%
- pest or weed control at 500 g/ha [4]: 80%
- pest or weed control at 500 g/ha [5]: 100%

Compound: COc1cc(-c2cc[n+](CCCS(=O)(=O)[O-])nc2)ncn1 [Compound 1.019]
- pest or weed control at 500 g/ha [1]: 100%
- pest or weed control at 500 g/ha (Setaria faberi (SETFA)): 100%
- pest or weed control at 500 g/ha [2]: 60%
- pest or weed control at 500 g/ha [3]: 70%
- pest or weed control at 500 g/ha (Lolium perenne (LOLPE)): 30%
- pest or weed control at 500 g/ha (Eleusine indica (ELEIN)): 90%
- pest or weed control at 500 g/ha [4]: 100%
- pest or weed control at 500 g/ha [5]: 100%

Compound: O=C(O)CC[n+]1ccc(-c2ncccn2)cn1.O=C([O-])C(F)(F)F [Compound 1.023, 3-(4-pyrimidin-2-ylpyridazin-1-ium-1-yl)propanoic acid 2,2,2-trifluoroacetate]
- Control of CHEAL after post-emergence application (100=total damage to plant; 0=no damage to plant) [1]: 80
- Control of SETFA after post-emergence application (100=total damage to plant; 0=no damage to plant) (Setaria faberi (SETFA)): 100
- Control of IPOHE after post-emergence application (100=total damage to plant; 0=no damage to plant) [2]: 30
- Control of ECHCG after post-emergence application (100=total damage to plant; 0=no damage to plant) [3]: 100
- Control of AMAPA after post-emergence application (100=total damage to plant; 0=no damage to plant) [6]: 100
- Control of ELEIN after post-emergence application (100=total damage to plant; 0=no damage to plant) (Eleusine indica (ELEIN)): 100
- Control of EPHHL after post-emergence application (100=total damage to plant; 0=no damage to plant) [4]: 100
- Control of DIGSA after post-emergence application (100=total damage to plant; 0=no damage to plant) [5]: 100
